Test results: patent US9828344B2, “Inhibitors of the notch signaling pathway and secretion for use in medicine” (Leibniz-Institut für Altersforschung Fritz-Lipmann-Institut …, priority 2012, dated 2017)
Peptide text beside a SMILES is read from it. * marks the point of attachment. Cbz = O=C(OCc1ccccc1)*; OtBu = CC(C)(C)O*

Key:
NotchΔE-EGFP [1] = assay: Fluorescence microscopy of reporter localization in HeLa NotchΔE-EGFP cells; type: cell-based; conditions: 50 μM compound
NotchΔE-EGFP [2] = assay: Reporter localization in U2OS cells stably expressing NotchΔE-EGFP; type: cell-based; conditions: 10 iM, 18 h
Protocol: FIG. 9: Compound effects are not cell-type specific. U2OS cells stably expressing NotchΔE-EGFP were incubated for 18 h with 10 iM compounds as indicated, fixed and imaged by fluorescence microscopy. […] Arrows, plasma membrane; arrowheads, ER. Asterisks indicate cells where the ER collapsed to large aggregates. Scalebar, 10 im.

NotchΔE-EGFP [3] = assay: Fluorescence microscopy of reporter localization in HeLa NotchΔE-EGFP cells; type: cell-based; conditions: for localization of NotchΔE-EGFP/NICD-EGFP: 10 μM compound, 24 h; for toxicity in cells: inferred from reversibility after wash-out
Protocol: FIG. 10: Phenotypes of Notch inhibitors are fully reversible. HeLa NotchΔE-EGFP cells plated in LabTek coverglass were incubated for 18 h with 10 iM of indicated compounds, washed and incubated for indicated times in cell culture medium. Cells were imaged by live-microscopy. […] Scalebar, 10 im.
For a detailed analysis of subcelluar distribution of NotchΔE/NICD the resolution of the HCS images was not sufficient. Therefore, the reporter cell line was plated on coverslips and incubated with 10 μM of individual compounds from the final hit list. After 24 h the localization of NotchΔE-EGFP/NICD-EGFP was determined by fluorescence microscopy. […] (FIG. 8).
Immunofluorescence stainings were made using standard procedures^55. Imaging was performed on a Zeiss Axiovert200 or an Axio Imager, using 63× 1.4NA objectives and Zeiss Axiovision software. For live-imaging cells were plated on Lab-Tek chambered coverglass (Thermo-Fisher). Images were assembled and processed using Adobe Photoshop. For displaying weakly stained ER-tubules/sheets non-linear changes in gamma-settings were used.

[4] = system: endogenous Notch signaling; assay: Luciferase Notch reporter assay in C2C12 cells transfected with Delta; type: cell-based; conditions: 16 h
Protocol: (§1) Cells were incubated with DAPT or 10 μM of the indicated compounds (50 μM in case of FLI-15 and -20) and after 16 h a luciferase assay was performed. […] Changes in relative gene expression levels (fold change) relative to the expression levels in DMSO controls are represented as the mean+/−SD, asterisks indicate p<0.01. Each measurement was taken from two independent samples. Each reaction was measured in triplicate. Changes in the relative expression of ngn1 were standardized to the expression of the housekeeping gene ef1a at 20 hpf. c) ISH with riboprobes specific for ngn1 was performed on dechorionated stage 4 hpf zebrafish embryos. Anterior is to the left, dorsal to the top. Magnifications of the somite region (small box) are shown. Arrows indicate larger ngn1 clusters or stronger ngn1 staining. s, sensory neurons; i, intermediate neurons; m, motor neurons.
(§2) We wanted to test whether the results obtained with the NotchΔE-EGFP construct are relevant for endogenous Notch signaling. Therefore we made use of C2C12 cells, a well established model for muscle development that expresses endogenous Notch^21,22. After stimulating endogenous Notch signaling by transfecting the Notch ligand Delta, Notch activity was measured by a luciferase assay using a Notch reporter^15 in the presence or absence of compounds (FIG. 4a). […] Next, we tested whether selected compounds would affect Notch signaling in vivo. […] Compounds were added to dechorionated stage 4 hpf zebrafish embryos and the effects were analyzed after 24 h by morphological inspection of somite formation. Phenotypes were ranked to four categories, normal somites, mild somite defects, strong somite defects and developmental delay. […] As an additional parameter we decided to analyze Notch-dependent genes involved in neurogenesis. Primary neurogenesis in zebrafish involves the selection of neuroblasts (repressed by Notch) from proneural clusters (Notch expressing cells), a process regulated in a negative manner by Notch-dependent lateral inhibition^25. Accordingly, neuroblast cells that express the neuronal specification factor neurogenin (ngn1^26) became more abundant when Notch signaling was impaired, for instance upon DAPT treatment^23,27. qPCR analyses on mRNA extracted from equivalent sets of embryos was performed for ngn1 expression (FIG. 4b). […] To confirm the data obtained by qPCR, whole-mount in-situ hybridizations (ISH) using an ngn1 specific riboprobe were performed (FIG. 4c, FIG. 11c). […] Taken together, FLI-06, -14, -15, -19 and -20 inhibited endogenous Notch signaling in vitro and in vivo, corroborating the NotchΔE-EGFP reporter data.
Endogenous Notch signaling in C2C12 was determined by a luciferase assay using a 12xCSL-luciferase reporter and transfected Delta as described before^15.

zebrafish embryos = assay: Zebrafish embryo Notch phenotype (somites, ngn1 qPCR and ISH); type: in vivo, zebrafish Danio rerio; conditions: 50 μM; for ngn1 positive cell clusters along the spinal cord (ISH): compared to DMSO-treated control embryos; for ngn1 mRNA levels (qPCR): relative to DMSO controls; for ngn1 positive cell clusters in the developing brain (ISH): compared to DMSO controls
Protocol: as §1
FIG. 11: Selected compounds affect somite formation and neurogenesis in vivo in zebrafish embryos. a) Lateral view of typical representative phenotypes induced by DAPT treatment, which were used as a reference to score the effect of compounds. […] Images were taken at 24 hpf. b) Pie chart showing the cumulative relative frequency of the phenotypes in a) at 24 hpf in embryos treated with 20, 50 and 100 iM of the indicated compounds. c) ISH with riboprobes specific for ngn1 was performed on dechorionated stage 4 hpf zebrafish embryos. Anterior is to the left, dorsal to the top. Magnifications of the developing head (box) are shown. Arrows indicate larger ngn1 clusters or stronger ngn1 staining. t, telencephalon; p, protectum; h, hindbrain; d, diencephalon; tg, tegmentum; vrc, ventral rostral cluster.
as §2
Embryos were obtained from natural spawning of wild-type TüAB strain adults, raised and staged according to supp. Ref 14. DAPT and compounds were applied at 50 iM in E3 embryo medium to zebrafish embryos with chorions torn but not completely removed from sphere stage until the stage of analysis, according to ref 23. Control embryos were mock treated with the same concentration of DMSO dissolved in E3 embryo medium. […]

Klotho = Klotho trafficking/processing in HEK293 cells stably expressing Klotho; type: cell-based; conditions: 10 μM, 16 h
Protocol: FIG. 3: Effect of compounds on NotchΔE-EGFP, APP and Klotho trafficking and processing. a) HEK293 stably expressing APPswe or Klotho (KI) were incubated with DAPT or compounds (10 μM) for 16 h. Media were collected, cells lysed and both assayed by Western blotting using indicated antibodies. m, mature; im, immature; s, shedded ectodomain; CTF, C-terminal fragment. b) Membranes from HeLa-NotchΔE-EGFP and APPswe cells were isolated and subjected to a γ-secretase in vitro assay in the presence of DAPT or compounds as indicated. NICD and AICD were detected by Western Blotting using antibodies against the C-terminus of APP (top) or antibodies specific for NICD (bottom). c) Quantitation from 5 independent experiments.
To test whether FLI-06 affected other membrane proteins, Klotho, a type I protein processed like APP and Notch^20, was analyzed. […] To analyze γ-secretase activity, in vitro assays using isolated membranes were performed (FIG. 3b, c). Production of NICD-EGFP and AICD (APP intracellular domain) were assayed. Both were produced in vitro at 37° C. but not at 4° C., and their production was inhibited by DAPT.
APP, APPs, APPCTF and Aβ detection was as described before^54 using antibodies 22C11 for APP and APPs, 6687 for APPCTF and 3552 and 2D8 for Aβ. Klotho was detected as described in Bloch et al.^20. Chemoluminescence was quantified on a LAS-4000 (Fuji) with MultiGauge software.

Row | SMILES | localization of NotchΔE-EGFP/NICD-EGFP (NotchΔE-EGFP [1]) | localization of NotchΔE-EGFP in U2OS cells (NotchΔE-EGFP [2]) | localization of NotchΔE-EGFP/NICD-EGFP (NotchΔE-EGFP [3]) | toxicity in cells (NotchΔE-EGFP [3]) | inhibition of endogenous Notch signaling ([4]; 10 μM) | ngn1 positive cell clusters along the spinal cord (ISH) (zebrafish embryos) | ngn1 mRNA levels (qPCR) (zebrafish embryos) | inhibition of endogenous Notch signaling ([4]; 50 μM) | ngn1 positive cell clusters in the developing brain (ISH) (zebrafish embryos) | glycosylation of Klotho (Klotho) | mature, complex-glycosylated post-Golgi form of Klotho (Klotho) | shedded Klothos in the medium (Klotho)
1 | CC(C)CC(NC(=O)C(Cc1ccccc1)NC(=O)C1CCCN1C(=O)OCc1ccccc1)C(=O)OC(C)(C)C (stereo not drawn) [FLI-19] (Cbz-Pro-Phe-Leu-OtBu; configuration not given here) | strong reduction of nuclear NICD-EGFP fluorescence and concomitant accumulation at the PM | PM accumulation similar to DAPT | accumulation of the reporter at the PM and in perinuclear Golgi-like structures | not acutely toxic in cells | considerably | increased | did not induce significant changes |  |  |  |  | 
2 | Cc1ccc(NC(=O)C(NS(=O)(=O)c2cccc3nsnc23)C(C)C)nc1 (stereo not shown) [FLI-15] | strong reduction of nuclear NICD-EGFP fluorescence and concomitant accumulation at the PM | PM accumulation similar to DAPT | accumulation of the reporter at the PM and in perinuclear Golgi-like structures | not acutely toxic in cells | hardly affected Notch signaling | expanded and denser clusters of ngn1 positive cells | significantly increased | remarkably | differentially expanded |  |  | 
3 | CC1=C(C(=O)OC2CCCCC2)C(c2ccc([N+](=O)[O-])cc2)C2=C(CC(C)(C)CC2=O)N1 (stereo not shown) [FLI-06, Cyclohexyl 4-(4′-nitrophenyl)-2,7,7-trimethyl-5-oxo-1,4,5,6,7,8-hexahydroquinoline-3-carboxylate] |  | ER accumulation of the reporter and in some cells aggregation | reduced nuclear fluorescence and localization in intracellular membranes | not acutely toxic in cells | strongly | expanded and denser clusters of ngn1 positive cells | significantly increased |  | differentially expanded | aberrant glycosylation | strongly reduced | strong reduction of Klothos in the medium
4 | Cn1c2ccccc2c2c(C(=O)N3CCN(Cc4ccc5c(c4)OCO5)CC3)cn(C3CCCC3)c(=O)c21 [FLI-14] | strong reduction of nuclear NICD-EGFP fluorescence and concomitant accumulation at the PM | PM accumulation similar to DAPT | accumulation of the reporter at the PM and in perinuclear Golgi-like structures | not acutely toxic in cells | strongly | expanded and denser clusters of ngn1 positive cells | significantly increased |  | differentially expanded |  |  | 
5 | CC(=O)Nc1ccc2nc(NC(=O)CC34CC5CC(CC(C5)C3)C4)sc2c1 [FLI-20] | strong reduction of nuclear NICD-EGFP fluorescence and concomitant accumulation at the PM | PM accumulation similar to DAPT | accumulation of the reporter at the PM and in perinuclear Golgi-like structures | not acutely toxic in cells | hardly affected Notch signaling | expanded and denser clusters of ngn1 positive cells | significantly increased | remarkably | differentially expanded |  |  | 
